Laboratory results published in publication PMC5655428, “Discovery and pharmacological characterization of a new class of prolyl-tRNA synthetase inhibitor for anti-fibrosis therapy” (PLoS ONE, 2017).

Columns and labels:
human skin fibroblast = experiment: Transcriptome analysis (AmpliSeq) and gene signature analysis; assay type: cell-based; settings: 300 nM, 24 h; >1.2-fold change, FDR < 0.05
Method: The Ion AmpliSeq Transcriptome Human Gene Expression Kit (ThermoFisher, Waltham, MA, USA) enables the simultaneous measurement of the expression levels of over 20,000 human genes in a single assay. AmpliSeq human-transcriptome libraries were constructed and sequenced by using the Ion Proton platform, according to the manufacturer’s instructions. Briefly, total RNA was extracted from human skin fibroblast treated with compounds for 24 h using the RNeasy Mini Kit. Reverse transcription was performed on 10 ng of the prepared total RNA samples using the AmpliSeq Whole Transcriptome primers with the included SuperScript® VILO^TM cDNA Synthesis kit (Life Technologies). Amplicons were ligated to adapters, and the resulting libraries were purified using Agencourt AMPure XP reagents (Beckman Coulter, Brea, CA, USA) and diluted to the concentration of 75 pM. Templated libraries were sequenced with the Ion Proton sequencer (ThermoFisher). AmpliSeq sequencing data were analyzed using the Ion Torrent Mapping Alignment Program. Identification of differentially expressed genes (DEGs) and comparative gene signature analysis were done in NextBio (http://nextbio.com). Gene expression data was taken by using our ATP-competitive PRS inhibitor analog (IC50: < 3.0 nM). […]

27 kinases = experiment: kinase panel experiment; assay type: biochemical; settings: almost no inhibitory activity, read-out: IC50 against 27 kinases

Q: Which “number of genes with altered expression levels compared to vehicle-treated cells” value (human skin fibroblast) does the source give for O=C(CC1NCCCC1O)Cn1cnc2cc(Br)c(Cl)cc2c1=O (centres unmarked) [HF, Halofuginone, reference compound] here?
A: 8229 genes

Q: Which IC50 (27 kinases) does the source give for Cn1cc(-c2cc(F)cc(CNC(=O)c3nccc4nc(C5CCCC5)[nH]c34)c2)cn1 [T-3833261, 2-Cyclopentyl-N-(3-fluoro-5-(1-methyl-1H-pyrazol-4-yl)benzyl)-3H-imidazo[4,5-c]pyridine-4-carboxamide] here?
A: > 1000 nM
